# Assay results from publication doi:10.1101/2025.11.04.686469, “Discovery of Host-Directed Small Molecules with Broad Anti-Leishmanial Efficacy” (bioRxiv, 2025).
# Read-outs that look alike come from different tables or passages of the source.
# How the values were obtained:
# [1] = system: extracellular L. donovani promastigotes; experiment: Effect of compounds on promastigote viability (resazurin assay); assay type: cell-based, Leishmania donovani; conditions: for MIC50: 72-hour incubation
# Protocol: (§1) The effect of compounds on extracellular promastigotes was evaluated using a resazurin-based assay as described previously. In short, late log phase Leishmania promastigotes were seeded in a 96 well plate at 1 x 10^5 parasites per well and treated with drugs (0.5 – 200 μM) for 72 hours at 25°C. Ten microliters of resazurin (0.02% w/v) were added to the treated parasites to achieve a final concentration of 0.002% w/v and incubated for 24 hours. Viability of the promastigotes was assessed by fluorescence (excitation 544 nm, emission 590 nm, SpectraMax M2, Molecular Devices).
# THP-1 macrophages = experiment: Effect of compounds on host cell viability (MTT); assay type: cell-based
# How it was run: (§2)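 THP-1 cells were differentiated with 150 nM PMA for 72 h, then exposed to compounds at 1–50 μM for 24 h; selected compounds were also run at 1–300 μM for 72 h. MTT at 0.5 mg/mL was added for 2 h at 37 °C, and formazan absorbance was read at 560 nm minus 670 nm.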
# [2] = system: intracellular L. donovani amastigotes; experiment: Luminescent-based evaluation of intracellular anti-leishmanial activity in THP-1 macrophages; assay type: cell-based, Leishmania donovani; conditions: for Selectivity 24h LC50 / Lum IC50: host-directed effect vs cytotoxicity
# How it was run: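 PMA-differentiated THP-1 macrophages (150 nM, 72 h) were infected 18 h with firefly luciferase-expressing L. donovani LV82 promastigotes, then washed. Infected cells were treated with compounds at 0.1-10 μM for 72 h. Surviving intracellular amastigotes were quantified by firefly luciferase luminescence after cell lysis and 10 min substrate incubation at room temperature.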
# [3] = system: intracellular L. donovani amastigotes; experiment: Image-based (Giemsa staining) evaluation of intracellular anti-leishmanial activity in bone marrow derived macrophages; assay type: cell-based, Leishmania donovani
# Protocol: Bone marrow derived macrophages (BMDMs) were isolated from BALB/c mice and cultured as previously described. […] Completely differentiated BMDMs are obtained after 7 days of culture with media change every 2 days. Harvested cells were seeded onto 10 mm glass cover slips at 5 x 10^5 cells/ well of a 24 well plate in DMEM media (without LCM) and allowed to adhere overnight. […] After infection, cells were washed three times with fresh media to remove extracellular promastigotes and treated with compounds for a 72-hour incubation. BMDM cells were then washed with phosphate buffered saline, fixed with ice-cold methanol, and stained with Giemsa (5% v/v in water). The cover slips with stained cells are mounted onto glass slides and imaged on EVOS XL (100X, Thermo Fisher Scientific). Leishmania amastigotes per 100 macrophages were determined in a blinded manner.
# [4] = system: intracellular L. donovani in WT and Lys K/O BMDMs; experiment: 197 target validation: Giemsa staining in BMDMs from wild-type and lysozyme knockout mice; assay type: cell-based, Leishmania donovani; conditions: WT vs Lys K/O BMDMs
# From the text: B6.129P2-Lyz2^tm1(cre)Ifo/J mice[23] (stock #004781, herein termed ‘Lys K/O’) were obtained from Jackson Laboratory. This strain has a nuclear-localized Cre recombinase inserted into the first coding ATG of the lysozyme 2 gene (Lyz2) which eliminates endogenous Lyz2 gene function. Wildtype C57BL6/J mice (stock #000664) were obtained as a control.
# Bone marrow derived macrophages (BMDMs) were isolated from both mice and cultured as described above in “Image-based Evaluation of Intracellular Anti-Leishmanial Activity”. BMDMs were seeded onto glass cover slips, infected with LV82 L. donovani at a multiplicity of infection of 1:10. Cells were washed to remove extracellular promastigotes and treated with compounds (197, amphotericin B) for a 72-hour incubation. BMDM cells were then washed with phosphate buffered saline, fixed with ice-cold methanol, and stained with Giemsa (5% v/v in water). The cover slips with stained cells are mounted onto glass slides and imaged on EVOS XL (100X, Thermo Fisher Scientific). Leishmania amastigotes per 100 macrophages were determined in a blinded manner.
# [5] = system: extracellular L. mexicana promastigotes; experiment: Effect of compounds on promastigote viability (resazurin assay); assay type: cell-based, Leishmania mexicana; conditions: Leishmania mexicana, 72-hour incubation
# Protocol: as §1
# [6] = Effect of compounds on host cell viability (MTT); assay type: cell-based; conditions: human
# How it was run: as §2
# [7] = system: intracellular L. mexicana amastigotes; experiment: microbe, parasite or virus in culture; assay type: cell-based, Leishmania mexicana; conditions: Leishmania mexicana, Macrophage, bone marrow derived macrophages, Giemsa staining
# Protocol: Bone marrow derived macrophages (BMDMs) were isolated from BALB/c mice and cultured as previously described. Briefly, bone marrow was harvested from long bones of mice and the isolated cells were seeded at a concentration of 2 x 10^6 cells/mL in petri dishes with RPMI media supplemented with 10% FBS, 1% Penn-Strep and 10% L929 conditioned media (LCM). Completely differentiated BMDMs are obtained after 7 days of culture with media change every 2 days. Harvested cells were seeded onto 10 mm glass cover slips at 5 x 10^5 cells/ well of a 24 well plate in DMEM media (without LCM) and allowed to adhere overnight. BMDM cells are then infected overnight with LV82 L. donovani or L. mexicana (NR-51210) at a multiplicity of infection of 10. After infection, cells were washed three times with fresh media to remove extracellular promastigotes and treated with compounds for a 72-hour incubation. BMDM cells were then washed with phosphate buffered saline, fixed with ice-cold methanol, and stained with Giemsa (5% v/v in water). The cover slips with stained cells are mounted onto glass slides and imaged on EVOS XL (100X, Thermo Fisher Scientific). Leishmania amastigotes per 100 macrophages were determined in a blinded manner.
# [8] = resazurin assay, read-out: Extracellular L. donovani promastigotes MIC50
# [9] = THP-1 macrophages, 72-hour incubation, MTT assay, read-out: 72 hr viability of THP-1 macrophages LC50
# [10] = read-out: 24 hr viability of THP-1 macrophages 24h LC50, THP-1 macrophages, 24-hour incubation, MTT assay
# [11] = THP1 macrophages, luminescence assay, 72 hours of treatment, read-out: Intracellular L. donovani amastigotes Lum IC50
# [12] = Giemsa staining, 72-hour incubation, read-out: Intracellular L. donovani amastigotes IC50
# [13] = Leishmania donovani, resazurin assay (Table 3), read-out: L. donovani Extracellular promastigotes MIC50
# [14] = Leishmania donovani, resazurin assay, read-out: Extracellular L. donovani promastigotes MIC50
# [15] = Leishmania donovani, THP-1, THP1 macrophages, luminescence assay, 72 hours of treatment, read-out: Intracellular L. donovani amastigotes Lum IC50
# [16] = Leishmania donovani, Macrophage, 72 h, Giemsa staining, 72-hour incubation, read-out: Intracellular L. donovani amastigotes IC50
# [17] = Leishmania donovani, Macrophage, Giemsa staining (Table 3), read-out: L. donovani Intracellular amastigotes IC50
# [18] = read-out: 24h LC50, THP1 macrophages, 24-hour incubation, MTT assay (Supplemental Table 2)
# [19] = intracellular Leishmania donovani in THP1 macrophages, luminescence assay (Supplemental Table 2), read-out: Lum IC50
SMILES,"MIC50 [1, 8] [µM]",CC50 (THP-1 macrophages; [9]) [µM],CC50 (THP-1 macrophages; [10]) [µM],"IC50 [2, 11] [µM]","IC50 [3, 12] [µM]",CC50 (THP-1 macrophages; [18]) [µM],"IC50 [2, 19] [µM]",other results
Nc1ccc(CNC2CCN(c3ccc(-n4nc(C(F)(F)F)cc4-c4ccc(-c5ccc(C(F)(F)F)cc5)cc4)cc3)C2)cc1 (stereo not drawn) [Compound 23],4.0,6.9,5.8,0.4,0.9,,,
Oc1ccc(CNC2CCN(c3ccc(-n4nc(C(F)(F)F)cc4C4CCCCC4)cc3)CC2)cc1 [Compound 319],0.8,7.2,6.4,0.8,3.4,,,
N[C@@H]1CCN(c2ccc(-n3nc(C(F)(F)F)cc3-c3ccc(-c4ccc(C(F)(F)F)cc4)cc3)cc2)C1 [Compound 129],1.7,6.2,6.3,0.1,0.4,,,
FC(F)(F)c1ccc(-c2nc(C(F)(F)F)cn2-c2ccc(NC3CCNCC3)cc2)cc1 [Compound 408],0.9,25.1,25.4,1.5,2.6,,,
N[C@H]1CCN(c2ccc(-n3nc(C(F)(F)F)cc3-c3ccc(-c4ccc(C(F)(F)F)cc4)cc3)cc2)C1 [Compound 130],2.1,6.4,4.2,0.2,1.6,,,
O=C(Nc1ccc(-n2cc(C(F)(F)F)nc2-c2ccc(-c3ccccc3)cc2)cc1)C1CCN(Cc2ccccc2)C1 (stereo not drawn) [Compound 86],3.2,8.2,21.9,1.4,0.6,,,
"C[C@@H]1[C@H](O)[C@@H](C)/C=C/C=C/C=C/C=C/C=C/C=C/C=C/[C@H](O[C@@H]2O[C@H](C)[C@@H](O)[C@H](N)[C@@H]2O)C[C@@H]2O[C@](O)(C[C@@H](O)C[C@@H](O)[C@H](O)CC[C@@H](O)C[C@@H](O)CC(=O)O[C@H]1C)C[C@H](O)[C@H]2C(=O)O [Amphotericin B, reference compound]",,,,,,,,anti-leishmanial activity in Lys K/O BMDMs [4]: retained its anti-leishmanial activity
N#Cc1cccc(CN2CCC(Nc3ccc(-n4nc(C(F)(F)F)cc4-c4ccc(-c5ccc(C(F)(F)F)cc5)cc4)cc3)C2)c1 (stereo not drawn) [Compound 53],,,,,,,,"MIC50 [5]: > 200 µM; MIC50 [1, 13]: > 200 µM; MIC50 [1, 14]: > 200 µM; direct effect on extracellular promastigote viability ([1]; resazurin assay, strain not named for 53, L. donovani for 197): no direct effects; CC50 at 24 h [6]: > 50 µM; CC50 at 72 h [6]: > 300 µM; CC50 (THP-1 macrophages): > 300 µM; reduction in macrophage viability (THP-1 macrophages; 72hr incubation up to 300μM): Neither compound had any reduction; IC50 [2, 15]: 0.4 µM; Selectivity 24h LC50 / Lum IC50 [2]: >112.6; IC50 [3, 16]: 1.1 µM; IC50 [3, 17]: < 2 µM"
N#Cc1ccc(CNCC(=O)Nc2ccc(-n3nc(C(F)(F)F)cc3C3CCCCC3)cc2)cc1 [Compound 354],,,,,,,,"MIC50 [5]: 30.7 µM; IC50 [7]: 3.5 µM; MIC50 [1, 13]: 22.1 µM; MIC50 [1, 14]: 22.1 µM; CC50 at 24 h [6]: 22 µM; CC50 at 72 h [6]: 20.2 µM; IC50 [2, 15]: 0.5 µM; Selectivity 24h LC50 / Lum IC50 [2]: 44.9; IC50 [3, 16]: 0.4 µM; IC50 [3, 17]: 0.4 µM"
CC(C)(C)OC(=O)NC1CCN(c2ccc(-n3nncc3-c3ccc(C(F)(F)F)cc3)cc2)C1 (stereo not drawn) [Compound 133],13.0,33.9,29,0.9,1.7,,,
FC(F)(F)c1ccc(-c2ccc(-c3cc(C(F)(F)F)nn3-c3ccc(NC4CCNC4)cc3)cc2)cc1 (stereo not drawn) [Compound 25],2.1,6.3,28.9,0.7,2.5,,,
"NCC(=O)Nc1ccc(-n2nc(C(F)(F)F)cc2-c2ccc3c(ccc4ccccc43)c2)cc1 [AR-12, reference compound]",,,,,,,,"MIC50 [5]: 15.1 µM; IC50 [7]: 1.5 µM; MIC50 [1, 13]: 2.2 µM; MIC50 [1, 14]: 2.2 µM; CC50 at 24 h [6]: 13.3 µM; CC50 at 72 h [6]: 8.6 µM; IC50 [3, 16]: 2.2 µM; IC50 [3, 17]: 2.2 µM"
NCC(=O)Nc1ccc(-n2cc(C(F)(F)F)nc2-c2ccc(-c3ccccc3)cc2)cc1 [Compound 50],14.6,42.7,23.5,1.5,9.1,,,
Oc1ccccc1CN1CCC(Nc2ccc(-n3nc(C(F)(F)F)cc3-c3ccc(-c4ccc(C(F)(F)F)cc4)cc3)cc2)C1 (stereo not drawn) [Compound 91],56.3,53.4,> 50,1.4,2.4,,,
CC(C)(C)C#Cc1ccc(-c2cc(C(F)(F)F)nn2-c2ccc(N3CCNCC3)cc2)cc1.Cl [Compound 44],1.9,14.5,7.4,0.9,1,,,
FC(F)(F)c1cc(-c2ccco2)n(-c2ccc(NC3CCNC3)cc2)n1 (stereo not drawn) [Compound 273],,,,,,15.6,4.9,
CC(C)(C)OC(=O)N[C@@H]1CCN(c2ccc(-n3nc(C(F)(F)F)cc3-c3ccc(-c4ccc(C(F)(F)F)cc4)cc3)cc2)C1 [Compound 127],,,,,,> 50,> 10,
FC(F)(F)c1cc(-c2ccc(-c3ccc(S(F)(F)(F)(F)F)cc3)cc2)n(-c2ccc(N3CCC(NCc4ccccc4)C3)cc2)n1 (stereo not drawn) [Compound 107],,,,,,> 50,> 10,
CC(C)(C)OC(=O)NC1CCN(c2ccc(-n3nc(C(F)(F)F)cc3-c3ccc(-c4ccc(C(F)(F)F)cc4)cc3)cc2)CC1 [Compound 72],,,,,,> 50,> 10,
O=C(Nc1ccc(-n2cc(C(F)(F)F)nc2-c2ccc(-c3ccccc3)cc2)cc1)c1ccccc1 [Compound 88],,,,,,> 50,> 10,
Fc1cccc(CN2CCC(Nc3ccc(-n4cc(C(F)(F)F)nc4-c4ccc(-c5ccc(C(F)(F)F)cc5)cc4)cc3)C2)c1 (stereo not drawn) [Compound 243],,,,,,> 50,> 10,
Oc1ccc(CN2CCC(Oc3ccc(-n4nc(C(F)(F)F)cc4C4CCCCC4)cc3)C2)cc1 (stereo not drawn) [Compound 377],,,,,,14.6,8.3,
COc1ccc(-n2cc(C(F)(F)F)nc2-c2ccc(-c3ccccc3)cc2)cc1 [Compound 245],,,,,,> 50,> 10,
